Results as given in patent US11793779B2, “Hica for use in prophylaxis and/or treatment of a disease or condition involving degradation of cartilage and/or disruption of cartilage homeostasis and/or integrity” (Salarusta Oy, priority 2020, dated 2023).

Legend:
Format in all cases: biochemical
[1] = target: T1, Human recombinant pure MMP-8 (Homo sapiens, UniProt P22894); test: MMP-8 mediated DEL-1 fragmentation (SDS-PAGE, silver stain); details: for inhibition of MMP-8 mediated DEL-1 fragmentation: Study A, 4 μl of 10% isomer, overnight at 37° C., FIG. 3A
T1 construct: purchased Proteaimmun 30100702
Procedure: The degradation of DEL-1 by MMP-8 was determined similarly as described (DeCarlo 1994, Sorsa, Salo et al. 1997). Human recombinant pure MMP-8 (#30100702, Proteaimmun) was preincubated 1 hour at 37° C. with p-aminophenylmercuric acetate (APMA) and different HICA isomers (D-HICA, #CAS 20312-37-2, Santa Cruz Biotechnology; L-HICA, #219827 Sigma-Aldrich). After which DEL-1 was added as a substrate. That was let incubate overnight at +37° C. Analyzed on […] SDS-PAGE with Silver Stain Pierce®. α-hydroxy-isovaleric acid (HMB). Ilomastat (Ilo). As assay buffer 50 mM Tris-HCl-buffer (TNC): pH 7.5; 0.2 M NaCl; 1.0 mM CaCl2 (Tervahartiala, Ingman et al. 1995). Fragmentation of DEL-1 induced by MMP-8 treated with 1 mM APMA was regarded as 100%. (Sorsa, Salo et al. 1997).
Study A: • 1. 1.7 μl DEL-1 (0.2 μg/μl) • 2. 1 μl MMP-8 (0.1 μg/μl)+5 μl 2 mM APMA+4 μl TNC • 3. 1.7 μl DEL-1 (0.2 μg/μl)+1 μl MMP-8 (0.1 μg/μl)+5 μl 2 mM APMA+4 μl TNC • 4.,5. 1.7 μl DEL-1 (0.2 μg/μl)+1 μl MMP-8 (0.1 μg/μl)+5 μl 2 mM APMA+10% 4 μl D-HICA • 6.,7. 1.7 μl DEL-1 (0.2 μg/μl)+1 μl MMP-8 (0.1 μg/μl)+5 μl 2 mM APMA+10% 4 μl L-HICA • 8.,9. 1.7 μl DEL-1 (0.2 μg/μl)+1 μl MMP-8 (0.1 μg/μl)+5 μl 2 mM APMA+10% 4 μl D-HMB • 10.,11. 1.7 μl DEL-1 (0.2 μg/μl)+1 μl MMP-8 (0.1 μg/μl)+5 μl 2 mM APMA+10% 4 μl L-HMB • 12.,13. 1.7 μl DEL-1 (0.2 μg/μl)+1 μl MMP-8 (0.1 μg/μl)+5 μl 2 mM APMA+4 μl Ilo
Study B: • 1. 1.7 μl DEL-1 (0.2 μg/μl) • 2. 1 μl MMP-8 (0.1 μg/μl)+5 μl 2 mM APMA+4 μl TNC • 3.,4. 1.7 μl DEL-1 (0.2 μg/μl)+1 μl MMP-8 (0.1 μg/μl)+5 μl 2 mM APMA+4 μl TNC • 6.,7. 1.7 μl DEL-1 (0.2 μg/μl)+1 μl MMP-8 (0.1 μg/μl)+7 μl 1.4 mM APMA+2 μl 10% D-HICA • 8.,9.,10. 1.7 μl DEL-1 (0.2 μg/μl)+1 μl MMP-8 (0.1 μg/μl)+5 μl 2 mM APMA+4 μl 10% D-HICA • 11.,12.,13. 1.7 μl DEL-1 (0.2 μg/μl)+1 μl MMP-8 (0.1 μg/μl)+1 μl 10 mM APMA+8 μl 10% D-HICA • 14. 1.7 μl DEL-1 (0.2 μg/μl)+1 μl MMP-8 (0.1 μg/μl)+5 μl 2 mM APMA+4 μl Ilo

[2] = target: T2, recombinant human ADAMTS-5 (Homo sapiens, UniProt Q9UNA0); test: ADAMTS-5 mediated break down of aggrecan (SDS-PAGE, silver stain); details: 10% racemic HICA, pH 7.4, incubation 2 d, FIG. 1 line 5
T2 construct: purchased Chemicon International Inc. CC1034
T2 sequence (Q9UNA0 262-930): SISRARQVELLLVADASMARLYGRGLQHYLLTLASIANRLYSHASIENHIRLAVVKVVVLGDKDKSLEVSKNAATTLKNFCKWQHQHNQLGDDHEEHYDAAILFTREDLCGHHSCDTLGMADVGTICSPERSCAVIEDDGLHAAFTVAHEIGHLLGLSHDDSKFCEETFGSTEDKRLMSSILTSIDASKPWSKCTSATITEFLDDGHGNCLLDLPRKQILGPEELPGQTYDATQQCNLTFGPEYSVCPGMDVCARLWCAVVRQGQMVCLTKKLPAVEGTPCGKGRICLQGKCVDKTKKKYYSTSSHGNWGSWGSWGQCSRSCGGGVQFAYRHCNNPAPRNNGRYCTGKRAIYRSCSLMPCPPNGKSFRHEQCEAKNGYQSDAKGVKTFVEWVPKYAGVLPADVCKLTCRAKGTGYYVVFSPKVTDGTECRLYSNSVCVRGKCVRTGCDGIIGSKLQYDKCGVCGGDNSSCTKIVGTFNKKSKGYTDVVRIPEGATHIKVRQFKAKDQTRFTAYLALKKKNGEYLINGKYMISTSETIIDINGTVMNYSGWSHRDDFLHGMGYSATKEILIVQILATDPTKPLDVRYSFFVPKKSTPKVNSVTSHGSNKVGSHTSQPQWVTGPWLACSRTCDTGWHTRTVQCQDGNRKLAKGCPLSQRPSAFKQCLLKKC
Procedure: (§1) As positive inhibitor controls Ilomastat (Ilo, CC1010, Millipore) and chlorhexidine (CHX, Corsodyl®, [2 mg/ml] (GlaxoSmithKline, Brøndby, Denmark) were used and 50 mM Tris-HCl-buffer (TNC): pH 7.5; 0.2 M NaCl; 1.0 mM CaCl2) was used as neutral assay buffer.
(§2) MMP-13 was preincubated 1 hour at 37° C. with p-aminophenylmercuric acetate (APMA, A9563, Sigma-Aldrich) to optimally activate (pro)MMP-13. As substrate, Aggrecan was added and then ADAMTS-5 or activated MMP-13 as catalytic/proteolytic enzyme and TNC, as neutral control, and 10% HICA, CHX or Ilo as protease/MMP-inhibitors let incubated together from 1 hour (h) to 2 days (d). The enzyme reactions terminated by boiling with modified Laemmli buffer. The samples were analysed by 8% SDS-PAGE and after electrophoresis the defragmentation of Aggrecan was visualised using Silver Stain Pierce®.
(§3) Sample with concentrations in lines: • 1. 0.25 μl molecular weight standards. Bio-Rad • 2. 4.2 μl Aggrecan (0.5 μg/μl) • 3. 4 μl ADAMTS-5 (0.1 μg/μl) • 4. 4.2 μl Aggrecan+4 μl ADAMTS-5+6 μl TNC-buffer. inc: 2d • 5. 4.2 μl Aggrecan+4 μl ADAMTS-5+6 μl 10% HICA. inc: 2d • 6. 4.2 μl Aggrecan+4 μl ADAMTS-5+6 μl CHX (2 mg/ml). inc: 2d • 7. 1 μl MMP-13 (0.2 μg/μl)+3 μl 2 mM APMA+6 μl TNC • 8. 4.2 μl Aggrecan+1 μl MMP-13 (0.2 μg/μl)+3 μl 2 mM APMA+6 μl TNC. inc: 1h • 9. 4.2 μl Aggrecan+1 μl MMP-13 (0.2 μg/μl)+3 μl 2 mM APMA+6 μl TNC. inc: 2d • 10. […]

[3] = target: T3, human Matrix metalloproteinase 13 (MMP-13) (Homo sapiens, UniProt P45452); test: MMP-13 mediated break down of aggrecan (SDS-PAGE, silver stain); details: 10% racemic HICA, APMA-activated MMP-13, incubation 2 d, FIG. 1 line 11
T3 construct: purchased BioTeZ, Berlin-Buch, Berlin, Germany 30100802
Procedure: as §1, §2, §3

T1 sequence (P22894 101-467): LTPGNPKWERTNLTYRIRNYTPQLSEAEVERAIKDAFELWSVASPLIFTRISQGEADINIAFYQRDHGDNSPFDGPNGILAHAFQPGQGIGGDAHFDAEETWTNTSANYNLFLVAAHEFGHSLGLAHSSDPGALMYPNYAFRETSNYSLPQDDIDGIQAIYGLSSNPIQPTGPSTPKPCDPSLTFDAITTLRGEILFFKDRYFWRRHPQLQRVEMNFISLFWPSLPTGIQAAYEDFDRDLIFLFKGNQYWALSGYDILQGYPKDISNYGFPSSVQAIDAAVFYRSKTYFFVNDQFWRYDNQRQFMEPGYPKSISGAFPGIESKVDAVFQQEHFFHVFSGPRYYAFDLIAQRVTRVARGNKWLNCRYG

CC(C)C[C@@H](O)C(=O)O [D-HICA]
inhibition of MMP-8 mediated DEL-1 fragmentation [1]: able to prevent fragmentation of DEL-1 | dose dependence of inhibition of MMP-8 mediated DEL-1 fragmentation ([1]; Study B, 2, 4 and 8 μl of 10% D-HICA, FIG. 3B): inhibit MMP-8 dose-dependently

CC(C)C[C@H](O)C(=O)O [L-HICA]
inhibition of MMP-8 mediated DEL-1 fragmentation [1]: able to prevent fragmentation of DEL-1

[H]/N=C(\N/C(=N/[H])NCCCCCCNC(=N)NC(=N)Nc1ccc(Cl)cc1)Nc1ccc(Cl)cc1 [chlorhexidine, reference compound]
inhibition of break down of Aggrecan by ADAMTS-5 [2]: prevent enzyme activity | inhibition of break down of Aggrecan by MMP-13 [3]: prevent enzyme activity
